Each structure is given as a SMILES string.

Assay [1] concerns CTFα. Kind of assay: APP carboxy-terminal fragment αCTF by Western blot in SY5Y-APP695WT cells. The class given is cell-based, human. Conditions: CTFα increase compared to chloroquine ([CTF]compound/[CTF]CQ) at 3 μM; mean of at least three experiments. An excerpt: Antibodies. Primary antibodies used in this study for western-blot analysis included a homemade rabbit antiserum against the last 17 amino acids of human APP protein sequence, named APP-Cter-C17 (1/5000 in TBS-M). Anti-β-actin (1/10 000 in TBS-M) was obtained from Sigma. Anti-LC3B (1/2000 in TBS-BSA) and anti-p62/SQSTM1 (1/2000 in TBS-M) antibodies were purchased from Cell Signaling Technology. Secondary antibodies (peroxidase-labeled goat anti-rabbit IgG, 1/5000 or peroxidase-labeled horse anti-mouse IgG, 1/50000 in TBS-T) were obtained from Vector Laboratories.
Cell culture and treatment. The human neuroblastoma cell line SY5Y-APP^695WT was maintained in Dulbecco's modified Eagle medium (DMEM, high glucose, pyruvate—GIBCO by Life Technologies) supplemented with 10% foetal bovine serum, 2 mM L-glutamine, 1 mM non-essential amino acids and penicillin/streptomycin (GIBCO by Life Technologies) at 37° C. in a 5% CO2 humidified incubator. SY5Y-APP^695WT cells were maintained in 75 cm^2 culture flasks (Falcon) with supplemented DMEM medium until they reached 80% of confluence 24 h before treatment.
For drug treatment, cells were plated at a rate of 5·10^5 cells per well into 12-well plates (Falcon) and cultured with 1 mL supplemented DMEM cell medium for 24 h before drug exposure. The following day, cell medium was replaced with fresh medium containing drugs diluted at the indicated concentrations. Cells were treated for 24 h. At the end of treatments, the cell medium was collected and kept at −80° C. until use for dosage. Then, cells were rinsed once with PBS and extracted in 100 μL of Laemmli buffer (10 mM Tris, 20% glycerol and 2% Sodium dodecyl sulfate) using a cell-scraper. The cell lysate was further sonicated (30 pulses of 0.5 s, 60 Hz) for 5 min. Total protein concentration was determined using the Pierce BCA Protein Assay Kit (Thermo scientific) according to the manufacturer's instructions. Samples were stored at −80° C. until analysis.
Western Blot Analysis. Cell protein lysates were prepared for western-blot analysis by diluting the sample with 1 volume of NuPAGE® lithium dodecyl sulfate (LDS) 2× sample buffer supplemented with 20% NuPAGE® sample reducing agents (Invitrogen). Samples were heat 10 min at 100° C. 10 μg of total proteins per well were loaded onto a precast 4-12% Criterion XT Bis-Tris polyacrylamide gel (Bio-Rad) and electrophoresis was achieved after applying a tension of 150 V during 90 min using a Criterion electrophoresis Cell with the NuPAGE® MOPS SDS running buffer (1×). Proteins were transferred to a nitrocellulose membrane of […] pore size (G&E Healthcare) using the Criterion blotting system and applying a tension of 100 V for 45 min. To resolve proteins of low molecular weights such as carboxy-terminal fragments of APP, 12% Criterion XT Bis-Tris polyacrylamide gels (Bio-Rad) were used and electrophoresis was performed during 70 min at 150 V in a NuPAGE® MES SDS running buffer (1×). Proteins were transferred to a nitrocellulose membrane of 0.2 μm pore size (G&E Healthcare) at 100 V for 40 min. Molecular weights calibration was achieved using molecular weight markers (Novex and Magic Marks, Life Technologies). Protein transfer and quality were determined by a reversible Ponceau Red coloration (0.2% Xylidine Ponceau Red and 3% Trichloroacetic acid). Membranes were then blocked in 25 mM Tris-HCl pH 8.0, 150 mM NaCl, 0.1% Tween-20 (v/v) (TBS-T) and 5% (w/v) of skimmed milk (TBS-M) or 5% (w/v) of bovine serum albumin (TBS-BSA) depending on the antibody during 1 h. Membrane was rinsed three-times 10 min in TBS-T before incubation with the primary antibody overnight at 4° C. Membrane was rinsed 3 times 10 min with TBS-T and then incubated with the secondary antibody for 45 min at room temperature (RT). […] Quantifications of protein expression levels were performed with ImageJ Software (NIH). […]
In general terms: In western blotting, separated proteins are transferred to a membrane and probed.

The test system of assay [2] is Aβ1-40 peptide secretion. Kind of assay: Quantification of secreted Aβ1-40 by ELISA in SY5Y-APP695WT cells. In kind it is cell-based. Conditions: Homo sapiens; concentration inhibiting 50% of Aβ1-40 peptide secretion in SY5Y cells; 24 h treatment; mean ± SD of at least two experiments in triplicate. The protocol:
Cell culture and treatment. The human neuroblastoma cell line […] was maintained in Dulbecco's modified Eagle medium (DMEM, high glucose, pyruvate-GIBCO by Life Technologies) supplemented with 10% foetal bovine serum, 2 mM L-glutamine, 1 mM non-essential amino acids and penicillin/streptomycin (GIBCO by Life Technologies) at 37° C. in a 5% CO2 humidified incubator. […] cells were maintained in 75 cm^2 culture flasks (Falcon) with supplemented DMEM medium until they reached 80% of confluence 24 h before treatment. For compounds treatment, a 10 mM stock solution was diluted in freshly supplemented DMEM medium to obtain the precise final concentration of drug. Bafilomycin A1 (BafA1), the vacuolar […] type H+ ATPase inhibitor, was purchased from Merck Millipore and was used at a final dilution of 100 nM. For drug treatment, cells were plated at a rate of 5·10^5 cells per well into 12-well plates (Falcon) and cultured with 1 mL supplemented DMEM cell medium for 24 h before drug exposure. The following day, cell medium was replaced with fresh medium containing drugs diluted at the indicated concentrations. Cells were treated for 24 h. At the end of treatments, the cell medium was collected and kept at -80° C. until use for dosage. Then, cells were rinsed once with PBS and extracted in 100 μL of Laemmli buffer (10 mM Tris, 20% glycerol and 2% Sodium dodecyl sulfate) using a cell-scraper. The cell lysate was further sonicated (30 pulses of 0.5 s, 60 Hz) for 5 min. Total protein concentration was determined using the Pierce BCA Protein Assay Kit (Thermo scientific) according to the manufacturer's instructions. Samples were stored at -80° C. until analysis. Quantification of secreted Aβ1-40/1-42 and sAPPα/sAPPβ. Conditioned media of […] collected at the end of treatments were centrifuged at 1000 g for 5 min to eliminate cells debris. Aβ1-40 and Aβ1-42 peptide concentrations in […] were determined using amyloid-beta 40 and 42 Human ELISA kits (Invitrogen) according to the manufacturer's instructions after 1:10 and 1:2 dilutions of supernatants in ELISA buffer, respectively. sAPPα and sAPPβ concentrations in ng/mL were determined using the sAPPα/sAPPβ kit (Meso Scale Diagnostics, MSD®) according to the manufacturer's instructions. Compounds of the invention (compounds 24-37, 41, 44 and 51-58) were evaluated for their ability to modulate APP processing on SY5Y human neuroblastoma cell line stably expressing the neuronal isoform of human wild-type APP695 (SYSY-APPwt). Aβ levels (Aβ1-40 and Aβ1-42) after treatment with reference and tested compounds were measured by ELISA (Table 2). […] APP carboxy-terminal fragments (αCTFs and AICD) were measured by Western blot and quantified. The effect of reference and tested compounds on αCTFs and AICD are expressed as the intensity of corresponding western-blot bands resulting from the secretase cleavages.
Background: An ELISA detects its analyte on a solid surface through an enzyme-linked reagent.

On to `CN(C)Cc1ccccc1-c1ccc(NCCCN2CCCCC2)c(OCCN2CCCCC2)c1` [Compound 30, 4-(2-[(Dimethylamino)methyl]phenyl)-2-[2-(piperidin-1-yl)ethoxy]-N-[3-(piperidin-1-yl)propyl]aniline], for which, in assay [1], the “CTFα vs CQ (3 μM)” value came to 6.4. Moreover, in assay [2], the IC50 (as a rule, the point on the concentration scale where inhibition reaches its midpoint) is 2800 ± 1200 nM.

Take `CN(C)Cc1ccccc1-c1ccc(NCCCN2CCCCC2)c(OCCC2CCCCC2)c1` [Compound 31, 3-(2-cyclohexylethoxy)-2′-((dimethylamino)methyl)-N-(3-(piperidin-1-yl)propyl)-[1,1′-biphenyl]-4-amine]: the “CTFα vs CQ (3 μM)” value in assay [1] came to 0.1. The IC50 in assay [2] came out at 2100 ± 300 nM.

The values are drawn from patent US20210230131A1, “POLYAMINO BIARYL COMPOUNDS AND THEIR USE” (INSERM (INSTITUT NATIONAL DE LA SANTÉ ET DE LA RECHERCHE …, priority 2018, published 2021).
